According to ChEMBL document CHEMBL1157539, “Thousands of chemical starting points for antimalarial lead identification” (Nature, 2010):

system: Plasmodium falciparum; assay: GSK_TCMDC: Inhibition of Plasmodium falciparum 3D7 in whole erythrocytes, using parasite LDH activity as an index of growth.; assay type: functional, organism-based; conditions: not given

SMILES | XC50
Cc1ccc2[nH]cc(C3CCN(CC4CCC(NC(=O)/C=C/c5ccc(Cl)c(Cl)c5)CC4)CC3)c2c1 (configuration not stated) | 552 nM

same assay, conditions: Plasmodium falciparum, 3D7

SMILES | XC50
CC12CCC(=O)N1C(C(=O)Nc1cccc(C(=O)Nc3cccc(C(F)(F)F)c3)c1)CS2 (configuration not stated) | 358 nM
CCCNC[C@@H](O)[C@H](Cc1ccccc1)NC(=O)c1cc(NCC)cc(N2CCCC2=O)c1 | 760 nM
Cc1cnc(C(=O)Nc2ccc3c(c2)CCCN(Cc2c[nH]c4cnccc24)C3)cn1 | 1230 nM
O=C(Nc1ccc2c(c1)OCO2)c1cc(-c2cccnc2)cnc1NCc1ccc2c(c1)OCO2 | 1190 nM
C=CCc1cc(C)ccc1OCCCON1C(N)=NC(N)=NC1(C)C | 3.2 nM
CC1CN(Cc2ccc(-c3ccc(-c4nc5ccccc5[nH]4)cc3)cc2)CC(C)O1 (configuration not stated) | 523 nM
CCCN(CC1CC1)c1ncc(-c2ccccc2CNCc2ccccc2O)cn1 | 496 nM
COc1cc2c(cc1OC)CN(CCc1ccc(NC(=O)c3cc4cc(Cl)ccc4[nH]3)cc1)CC2 | 1020 nM
COc1ccccc1N1CCN(C(C(=O)NCc2cccc(F)c2)c2ccc(C)cc2)CC1 (configuration not stated) | 892 nM
Cc1ccc(C(C)C)cc1CON1C(=N)N=C(N)NC1(C)C | 3.2 nM
Cc1cc2ncn(-c3nccc(NCc4ccc(F)cc4)n3)c2cc1C | 886 nM
CC(C)COc1ccc(Cl)cc1Cc1nc(-c2nc3ccc(CN4CCCCC4)cc3[nH]2)co1 | 738 nM
O=S(=O)(Nc1ccc(CCN2CCC(N3CCCCC3)CC2)cc1)c1ccc(Cl)cc1 | 1090 nM
O=C(Cc1ccccc1)NC(CCN1CCC(NC(=O)c2ccc(Cl)cc2)CC1)c1ccc(Cl)c(Cl)c1 (configuration not stated) | 916 nM
O=C(Nc1cccc(C(F)(F)F)c1)c1cc([N+](=O)[O-])cc2cn[nH]c12 | 995 nM
Oc1ccc(CCNc2nc(NCc3ccccc3-c3ccccc3)nc(N3CCCNCC3)n2)cc1 | 877 nM
Cc1nnnn1-c1ccc(C(=O)N2CCC3(CC2)CN(Cc2ccc(Cl)c(Cl)c2)C(=O)O3)cc1 | 181 nM
O=C(N/C=N/c1cc([N+](=O)[O-])c(-c2ccncc2)n1-c1ccccc1)c1cccc(O)c1 | 331 nM
O=C(Nc1ccccc1)Nc1ccc(-c2cccc(-c3nc4cc(C(F)(F)F)ccc4[nH]3)c2)cc1 | 734 nM
CCCN(Cc1nnc(-c2cccs2)o1)C(=O)CSc1nnnn1-c1cc(C)cc(C)c1 | 500 nM
COc1cc(OC)cc(-c2nn(-c3ccc([N+](=O)[O-])cc3Cl)c(=S)n2Cc2ccco2)c1 | 838 nM
Cc1nnc2c(NC(=O)NC3CCCC3)cc3cc(-c4ccc(CN5CCN(C)CC5)cc4)ccc3n12 | 1020 nM
CCOc1ccc(-c2nc(NC(=O)CS(=O)(=O)c3ccccc3)sc2C)cc1 | 510 nM
NC1CCN(Cc2ccc(-c3ccc(-c4nc5cc(F)ccc5[nH]4)s3)cc2)C1 (configuration not stated) | 646 nM

SMILES | XC50
Cc1ccc(NC(=O)c2cccc(CN3CCCN(Cc4cccc(O)c4)CC3)c2)cc1C | 1040 nM
CC(C)(C)c1ccc(N2C(N)=NC(N)=NC2(C)C)cc1 | 26.7 nM
O=c1cc(NCCCNCc2cc(C(F)(F)F)ccc2Cl)[nH]c2ccccc12 | 1020 nM
CCc1cn2c3c(cc(C(=O)N[C@@H](Cc4ccccc4)[C@H](O)CNC4CCC4)cc13)N(C)S(=O)(=O)CC2 | 99 nM
CN1CCN(CC(=O)Nc2cccc(-c3ccc(-c4nc5cc(F)ccc5[nH]4)cc3)c2)CC1 | 703 nM
O=C(Nc1ccccc1O)C1CCN(c2ncnc3cc(-c4ccc(F)cc4)sc23)CC1 | 874 nM
N#CC1(c2ccccc2)CCN(c2nc(NCCCN3CCCC3=O)nc(N3CCCC4CCCCC43)n2)CC1 (configuration not stated) | 864 nM
COCC(C)n1c(SCC(=O)Nc2cc(C(F)(F)F)ccc2Cl)nc2ccccc2c1=O (configuration not stated) | 130 nM
O=C(/C=C/c1ccc(Cl)c(Cl)c1)Nc1cccc(CN2CCC(c3c[nH]c4ccccc34)CC2)c1 | 670 nM
CN1CCN(Cc2cc3cc(NC(=O)/C=C/c4cccc(Cl)c4)ccc3s2)CC1 | 273 nM
CCCCCCCC1CC(CC(=O)Nc2ccnc3ccc(OC)cc23)CN1 (configuration not stated) | 511 nM
Cc1cc(N2CCN(CC3CCN(C)CC3)CC2)nc(Nc2ccc(Cl)cc2)n1 | 698 nM
CCCCCCC(CC)c1cc(O)c2c(c1)OC(C)(C)c1ccncc1-2 (configuration not stated) | 808 nM
Cc1[nH]c(C)c(-c2ccc(OCc3ccc(OC(F)(F)F)cc3)nc2)c(=O)c1Br | 140 nM
O=C(Nc1ccc(C(=O)N2CCN(CCN3CCN(c4cccc(C(F)(F)F)c4)CC3)CC2)cc1)c1ccc(C(F)(F)F)cc1 | 690 nM
CC(C)c1cccc(OCC2CCN(c3ccc(C(=O)Nc4ccccc4)cn3)CC2)c1 | 701 nM
NC(=O)c1cccc(C(=O)Nc2cccc(-c3cccc(-c4nc5cc(F)ccc5[nH]4)c3)c2)c1 | 249 nM
Cc1cc(-c2ccc3c(c2)CCN(CCC2CCC(NC(=O)/C=C/c4ccc(F)cc4)CC2)CC3)on1 (configuration not stated) | 724 nM
COc1ccc(CN2CCCN(Cc3cccc(NC(=O)c4ccc(-c5ccccc5)cc4)c3)CC2)cc1 | 943 nM
COc1ccc(C(=O)CCC(=O)N(CCC2CCCN2C)Cc2ccc(-c3ccc(CNCCc4ccc(S(C)(=O)=O)cc4)cn3)cc2)cc1F (configuration not stated) | 874 nM
Cc1ccc2[nH]cc(C3CCN(CC4CCC(NC(=O)/C=C/c5ccc(Cl)c(Cl)c5)CC4)CC3)c2c1 (configuration not stated) | 840 nM
CCn1c(SC)nnc1C1CCCN(CC(=O)Nc2nc3ccc(OC)cc3s2)C1 (configuration not stated) | 746 nM
CC1CN(c2ccnc3ccc(Sc4ccc(Oc5ccccc5)cc4)cc23)CC(C)N1 (configuration not stated) | 785 nM
NC1CCN(Cc2ccc(-c3cccc(-c4nc5ccccc5[nH]4)c3)cc2)C1 (configuration not stated) | 849 nM

SMILES | XC50
Cc1noc(-c2ccc(NC[C@@H](C)NC[C@H](O)c3cccc(Cl)c3)cc2)n1 | 756 nM
O=C(/C=C/c1ccc2ccccc2c1)NCC1(c2ccc(-c3ccccc3)cc2)CCOCC1 | 1520 nM
COC(=O)CCCCCOc1cc(Cc2cnc(N)nc2N)cc(OC)c1OC | 179 nM
C=C[C@]1(C)C[C@@H](OC(=O)NC(=O)C2CCN(C(=O)CSc3ccccc3)CC2)[C@]2(C)[C@H](C)CC[C@]3(CCC(=O)[C@H]32)[C@@H](C)[C@@H]1O | 1010 nM
C[C@H](N[C@H]1CCCc2c1[nH]c1ccc(Br)cc21)c1ccccc1 | 222 nM
N#Cc1ccc(C(=O)Nc2cccc(-c3ccc(CN4CCCC4)cc3)c2)cc1 | 723 nM
COc1cc2c(cc1OCCN1CCC(N3CCCCC3)CC1)N(C(=O)/C=C/c1ccccc1OC(F)(F)F)CC2 | 590 nM
CCc1ccc(C2CCN(CCCCNC(=O)c3ccc(NC(=O)c4ccc(Cl)cc4)cc3)CC2)c(OCCO)c1 | 1390 nM
COc1cc(NC(=O)N2CCOC(CCN3CCC(c4ccccc4)CC3)(c3ccc(Cl)c(Cl)c3)C2)cc(OC)c1 (configuration not stated) | 287 nM
CN1CCC(COc2ccc(CN3CCC(NC(=O)c4cccc(Cl)c4)CC3)cc2)CC1 | 889 nM
COc1ccc(-c2cnc3[nH]cc(-c4ccc(C(=O)O)c(C)c4)c3c2)cn1 | 311 nM
Nc1nccc2ccc(-c3cccnc3)cc12 | 419 nM
CCOc1c(OC)ccc2c1CCN(CCN1CCC(CNC(=O)c3ccc(-c4ccc(C#N)cc4)cc3)CC1)C2 | 1080 nM
CCCCCCN1CCN(Cc2cccc(NC(=O)c3cc4ccccc4s3)c2)CC1 | 912 nM
COc1ccc(OCc2ccccn2)c(C2CCN(CCCCNC(=O)c3ccc(NC(=O)c4ccc(Cl)cc4)cc3)CC2)c1 | 764 nM
CCc1ccc(NC(=O)N(CCCN2CCN(C)CC2)Cc2csc(-c3ccc(CNCc4ccccc4)cc3)n2)cc1 | 1010 nM
CCOC(=O)CCCCOc1c(OC)cc(Cc2cnc(N)nc2N)cc1OC | 29.9 nM
O=C(Nc1ccc(Oc2ccccc2)cc1)N[C@@H](Cc1ccc(O)cc1)C(=O)NC1CCN(Cc2ccc(O)c([N+](=O)[O-])c2)C1 (some centres not stated) | 1510 nM
COc1ccc(OC)c(NC(=O)c2c(-c3c(F)cccc3Cl)noc2C)c1 | 701 nM
O=C(NCC1CCN(CC2CCCCC2)C1)c1cc(-c2cccc(C(F)(F)F)c2)cs1 (configuration not stated) | 738 nM
Fc1ccccc1COc1ccc(Nc2ncnc3ccc(I)cc23)cc1Cl | 930 nM
O=C(NCCN1CCCCC1)c1cc2cc(-c3ccccc3)ccc2n1S(=O)(=O)c1ccccc1 | 1120 nM
Cc1ccc2c(=NN=Cc3cccc(Cl)c3)cc(C)[nH]c2c1 | 949 nM
O=C(NCCNc1ccnc(Nc2ccc(F)cc2)n1)Nc1ccc2c(c1)OCO2 | 682 nM

SMILES | XC50
Clc1ccc(Cl)c2[nH]c(CNCCCNc3nc4ccccc4[nH]3)cc12 | 163 nM
CC[C@H](C)CNCc1ccc(OCc2cccc(COc3ccc(CNC[C@@H](C)CC)cc3I)c2)c(I)c1 | 396 nM
CCc1ccc(NC(=O)C=NNC(=N)N)cc1 | 902 nM
Cc1nc(-c2cccc(Nc3nccc(NCC(O)c4ccccc4)n3)c2)cs1 (configuration not stated) | 793 nM
Cc1nnsc1C(=O)Nc1cccc(-c2cccc(-c3nc4ccccc4[nH]3)c2)c1 | 437 nM
O=C(NCc1cc2c(cc1Cl)OCO2)c1ccc(CNC2CCN(Cc3ccccc3)CC2)cc1 | 831 nM
CNc1ccc(CNCc2cccc(-c3ccc(-c4nc5cccc(C)c5[nH]4)cc3)c2)cc1 | 660 nM
O=c1cc(NCCCCNCc2cccc(C(F)(F)F)c2)[nH]c2ccccc12 | 789 nM
COc1ccc2nc(C)cc(N/N=C/c3ccc([N+](=O)[O-])cc3)c2c1 | 695 nM
O=C(NCCN1CCOCC1)c1ccc(-c2ccc(CNCCCc3ccccc3)cc2)nc1 | 782 nM
COc1cccc2c(NN=Cc3cccc(F)c3)ccnc12 | 932 nM
COc1cc(Cc2cnc(N)nc2N)cc(OCCCC(=O)O)c1OC | 1180 nM
CCCC[C@@H](C(=O)NCCc1ccc(Cl)cc1)N1C(=O)CCC1C(=O)Nc1ccc(Cl)c(Cl)c1 (some centres not stated) | 873 nM
CC(C)(C)c1ccc(CNCCOc2ccc(Nc3nnc(-c4ccc(-c5ncc[nH]5)cc4)o3)c3ccccc23)cc1 | 135 nM
COc1ccc2ccccc2c1C=NN=c1cc(C)[nH]c2cc(C(F)(F)F)ccc12 | 1040 nM
CCOc1cc(C(=O)NCc2cc(Cl)cc(Cl)c2)ccc1-c1nc2cc(Cl)ccc2[nH]1 | 730 nM
CCCCNS(=O)(=O)c1ccc(NC(=O)c2cc([N+](=O)[O-])ccc2Cl)cc1 | 902 nM
Cc1[nH]c(C)c(-c2ccc(Br)cc2)c(=O)c1Cl | 844 nM
N#Cc1ccc(N2CCN(Cc3cccc(-c4ccc(-c5nc6cc(C(F)(F)F)ccc6[nH]5)s4)c3)CC2)nc1 | 1040 nM
CC1CN(Cc2ccc(-c3ccc(-c4nc5cc(F)ccc5[nH]4)cc3)cc2)CC(C)O1 (configuration not stated) | 564 nM
Cc1nc2ccccn2c1C1(O)C(=O)Nc2c(Cl)cc(Cl)cc21 (configuration not stated) | 1590 nM
COc1ccc2ncc(F)c([C@@H](O)CN3CCC(NCc4cc(C#N)c5c(c4)CCO5)CC3)c2n1 | 889 nM
O=C(Nc1ccc(Br)cc1)N(CCN1CCOCC1)CC(O)COc1ccc(Cl)c(F)c1 (configuration not stated) | 1040 nM
Cc1ccc(NC(=O)Nc2ccccc2)cc1-c1ccc(C(=O)Nc2ccncc2)cc1 | 240 nM
